molecular target: T1, hCRTH2 receptor (Homo sapiens, UniProt Q9Y5Y4); assay: CRTH2 membranes radioligand binding assay ({3H}-PGD2); conditions: {3H}-PGD2 2.5 nM; membranes of HEK 293 cells expressing recombinant hCRTH2; read-out: hCRTH2 BDG IC50
T1 construct: expressed in transfected cells
T1 sequence (Q9Y5Y4 1-395): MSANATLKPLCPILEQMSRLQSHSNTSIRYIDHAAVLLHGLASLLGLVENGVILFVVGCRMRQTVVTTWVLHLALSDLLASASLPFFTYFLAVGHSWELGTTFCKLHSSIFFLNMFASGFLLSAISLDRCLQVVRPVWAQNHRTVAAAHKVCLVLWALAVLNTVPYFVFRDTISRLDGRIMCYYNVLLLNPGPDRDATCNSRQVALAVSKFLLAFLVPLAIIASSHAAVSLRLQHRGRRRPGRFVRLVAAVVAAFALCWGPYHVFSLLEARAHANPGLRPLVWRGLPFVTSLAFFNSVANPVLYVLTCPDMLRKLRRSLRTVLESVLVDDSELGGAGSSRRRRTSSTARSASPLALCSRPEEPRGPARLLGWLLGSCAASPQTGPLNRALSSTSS
Procedure: Cells are detached from culture plates in 5 ml buffer A (5 mM Tris, 1 mM MgCl2×6 H2O, 0.1 mM PMSF, 0.1 mM phenanthroline) per plate using a police rubber and transferred into centrifugation tubes and frozen at −80° C. After thawing, the cells are centrifuged at 500 g for 5 min and then resuspended in buffer A. Cells are then fragmented by homogenization with a Polytron homogenizer for 30 s. The membrane fragments are centrifuged at 3000 g for 40 min and resuspended in membranes in buffer B (50 mM Tris, 25 mM MgCl2, 250 mM saccharose, pH 7.4) and aliquots are stored frozen.
Binding assay is performed in a total volume of 250 μl. […] For unspecific binding, PGD2 is added to the reaction mixture at 1 μM final concentration. This binding assay mix is incubated at rt for 90 min and then filtered through a GF/C filter plate. The filter is washed three times with ice cold binding buffer. Then, 40 μl per well Microscint-40 (Packard) are added and the bound radioactivity is quantified by means of Topcount (Packard).

Compared with O=C(O)Cn1c2c(c3ccccc31)CC(C(=O)N1CCc3ccccc31)CC2 (racemic) [Example A-39, (±)-[3-(2,3-Dihydro-indole-1-carbonyl)-1,2,3,4-tetrahydro-carbazol-9-yl]-acetic acid], CC(C)N(Cc1ccccc1)C(=O)C1CCc2c(c3cc(F)ccc3n2CC(=O)O)C1 (single isomer, unassigned; (+)) [(+)-[3-(Benzyl-isopropyl-carbamoyl)-6-fluoro-1,2,3,4-tetrahydro-carbazol-9-yl]-acetic acid] is 1.5-fold higher in IC50: 2 nM for the first, 3 nM for the second.

Going from CN(C(=O)C1(C)CCc2c(c3ccccc3n2CC(=O)O)C1)c1ccccc1 (racemic) [Example B-01, (±)-[3-Methyl-3-(methyl-phenyl-carbamoyl)-1,2,3,4-tetrahydro-carbazol-9-yl]-acetic acid] to CN(C(=O)C1(C)CCc2c(c3ccccc3n2CC(=O)O)C1)c1cccc(Cl)c1 (racemic) [Example B-10, (±)-{3-[(3-Chloro-phenyl)-methyl-carbamoyl]-3-methyl-1,2,3,4-tetrahydro-carbazol-9-yl}-acetic acid], the IC50 falls from 3 nM to 1 nM (3-fold).

First: CC1(C(=O)N(Cc2ccccc2)c2ccccc2)CCc2c(c3ccccc3n2CC(=O)O)C1 (racemic) [Example B-04, (±)-[3-(Benzyl-phenyl-carbamoyl)-3-methyl-1,2,3,4-tetrahydro-carbazol-9-yl]-acetic acid]
Second: CC1(C(=O)N(Cc2ccsc2)c2ccccc2)CCc2c(c3ccccc3n2CC(=O)O)C1 (racemic) [Example B-07, (±)-[3-Methyl-3-(phenyl-thiophen-3-ylmethyl-carbamoyl)-1,2,3,4-tetrahydro-carbazol-9-yl]-acetic acid]
The IC50 of the first is 1.5-fold higher: 3 nM for the first, 2 nM for the second.

CCCC1(C(=O)Nc2cccc(F)c2)CCc2c(c3ccccc3n2CC(=O)O)C1 (racemic) [Example B-32, (±)-[3-(3-Fluoro-phenylcarbamoyl)-3-propyl-1,2,3,4-tetrahydro-carbazol-9-yl]-acetic acid] and CC1(C(=O)NCc2cc(F)cc(F)c2)CCc2c(c3ccccc3n2CC(=O)O)C1 (racemic) [Example B-68, (±)-[3-(3,5-Difluoro-benzylcarbamoyl)-3-methyl-1,2,3,4-tetrahydro-carbazol-9-yl]-acetic acid] are within 1.5-fold of each other in IC50: 22 nM for the first, 19 nM for the second.

In the case of CC(C)N(Cc1ccccc1)C(=O)C1CCc2c(c3cc(F)ccc3n2CC(=O)O)C1 (single isomer, unassigned; (-)) [(−)-[3-(Benzyl-isopropyl-carbamoyl)-6-fluoro-1,2,3,4-tetrahydro-carbazol-9-yl]-acetic acid], the IC50 is reported as 67 nM.

molecular target: T1, hCRTH2 receptor; assay: Intracellular calcium mobilization assay (FLIPR), PGD2 challenge; format: cell-based; conditions: HEK-293 cells stably expressing hCRTH2; 10 nM prostaglandin D2 as agonist
Procedure: A functional assay with cells expressing the human CRTH2 receptor may be used to detect changes in the levels of intracellular calcium concentration following compound treatment. After addition of the compound the cells are challenged with PGD2. In a Fluorescent Imaging Plate Reader (FLIPR™, Molecular Devices, Sunnyvale, Calif.) fluorescence emission is recorded during both additions, emission peak values above base level after PGD2 addition were exported, normalized to low controls (no PGD2) and high controls (no active compound). The relative values of the remaining activity were used to determine IC50 values by curve fitting the data to a single site to a four-parameter logistic sigmoid dose response curve of the equation (A+((B−A)/(1+((C/x)^D)))).
Cells (HEK-293), stably expressing the hCRTH2 receptor under the control of the cytomegalovirus promotor from a single insertion of the expression vector pcDNA5 (Invitrogen), are grown to confluency in DMEM (low glucose, Gibco) medium supplemented with 10% fetal calf serum (both Bioconcept, Switzerland) under standard mammalian cell culture conditions (37° C. in a humidified atmosphere of 5% CO2). Cells are detached from culture dishes using a dissociation buffer (0.02% EDTA in PBS, Gibco) for 1 min, and collected by centrifugation at 200 g at rt for 5 min in assay buffer (equal parts of Hank's BSS (HBSS, Bioconcept) and DMEM (low glucose, without phenol red, Gibco)). After incubation for 45 min (37° C. and 5% CO2) in the presence of 1 μM Fluo-4 and 0.04% Pluronic F-127 (both Molecular Probes), 20 mM HEPES (Gibco) in assay buffer, the cells are washed with and resuspended in assay buffer, then seeded onto 384-well FLIPR assay plates (Greiner) at 50,000 cells in 66 μl per well, and sedimented by centrifugation.
Stock solutions of test compounds are made up at a concentration of 10 mM in DMSO, and serially diluted in assay buffer to concentrations required for inhibition dose response curves. Prostaglandin D2 (Biomol, Plymouth Meeting, Pa.) is used as an agonist.
A FLIPR384 instrument (Molecular Devices) is operated according to the manufacturer's standard instructions, adding 4 μl of test compound dissolved at 10 mM in DMSO and diluted prior to the experiment in assay buffer to obtain the desired final concentration. 10 μl of 80 nM prostaglandin D2 (Biomol, Plymouth Meeting, Pa.) in assay buffer, supplemented with 0.8% bovine serum albumin (fatty acid content<0.02%, Sigma), is then added to obtain a final concentration of 10 nM and 0.1%, respectively. Changes in fluorescence are monitored before and after the addition of test compounds at λex=488 nm and λem=540 nm. Emission peak values above base level after prostaglandin D2 addition are exported after base line subtraction. Values are normalized to high-level control (no test compound added) after subtraction of base line value (no prostaglandin D2 added). The program XL1fit 3.0 (IDBS) is used to fit the data to a single site dose response curve of the equation (A+((B−A)/(1+((C/x)^D)))) and to calculate the IC50 values.

Going from CN(C(=O)C1CCc2c(c3cc([N+](=O)[O-])ccc3n2CC(=O)O)C1)c1ccccc1 (racemic) [(±)-[3-(Methyl-phenyl-carbamoyl)-6-nitro-1,2,3,4-tetrahydro-carbazol-9-yl]-acetic acid] to CN(C(=O)C1CCc2c(c3ccccc3n2CC(=O)O)C1)c1ccccc1C(F)(F)F (racemic) [Example A-37, (±)-{3-[Methyl-(2-trifluoromethyl-phenyl)-carbamoyl]-1,2,3,4-tetrahydro-carbazol-9-yl}-acetic acid], the IC50 rises from 11 nM to 45 nM (4.1-fold). The first is the more potent here.

CN(C(=O)C1CCc2c(c3ccccc3n2CC(=O)O)C1)C(c1ccccc1)c1ccccc1 (racemic) [Example A-42, (±)-[3-(Benzhydryl-methyl-carbamoyl)-1,2,3,4-tetrahydro-carbazol-9-yl]-acetic acid] and CN(C(=O)C1(C)CCc2c(c3ccccc3n2CC(=O)O)C1)c1ccccc1 (racemic) [Example B-01, (±)-[3-Methyl-3-(methyl-phenyl-carbamoyl)-1,2,3,4-tetrahydro-carbazol-9-yl]-acetic acid] are within 1.5-fold of each other in IC50: 17 nM for the first, 13 nM for the second.

Compared with CN(C(=O)C1(C)CCc2c(c3ccccc3n2CC(=O)O)C1)c1cccc(Cl)c1 (racemic) [Example B-10, (±)-{3-[(3-Chloro-phenyl)-methyl-carbamoyl]-3-methyl-1,2,3,4-tetrahydro-carbazol-9-yl}-acetic acid], CC1(C(=O)N(CCC#N)Cc2ccccc2)CCc2c(c3ccccc3n2CC(=O)O)C1 (racemic) [Example B-56, (±)-{3-[Benzyl-(2-cyano-ethyl)-carbamoyl]-3-methyl-1,2,3,4-tetrahydro-carbazol-9-yl}-acetic acid] is 1.8-fold higher in IC50: 20 nM for the first, 36 nM for the second.

First: CCC1(C(=O)N2CCc3ccccc32)CCc2c(c3ccccc3n2CC(=O)O)C1 (racemic) [Example B-22, (±)-[3-(2,3-Dihydro-indole-1-carbonyl)-3-ethyl-1,2,3,4-tetrahydro-carbazol-9-yl]-acetic acid]
Second: O=C(O)Cn1c2c(c3cc(F)ccc31)CC(C(=O)N1CCc3ccccc31)CC2 (single isomer, unassigned; (+)) [(+)-[3-(2,3-Dihydro-indole-1-carbonyl)-6-fluoro-1,2,3,4-tetrahydro-carbazol-9-yl]-acetic acid]
The IC50 of the first is 2.4-fold higher: 67 nM for the first, 28 nM for the second. The second is the more potent here.

Compared with O=C(O)Cn1c2c(c3cc(F)ccc31)CC(C(=O)N1CCCCCCC1)CC2 (single isomer, unassigned; (+)) [(+)-[3-(Azocane-1-carbonyl)-6-fluoro-1,2,3,4-tetrahydro-carbazol-9-yl]-acetic acid], O=C(O)Cn1c2c(c3cc(F)ccc31)CC(C(=O)N1CCN(c3ccc(F)cc3)CC1)CC2 (single isomer, unassigned; (-)) [(−)-{6-Fluoro-3-[4-(4-fluoro-phenyl)-piperazine-1-carbonyl]-1,2,3,4-tetrahydro-carbazol-9-yl}-acetic acid] is 13-fold higher in IC50: 46 nM for the first, 599 nM for the second. The first is the more potent here.

Reference: patent US8039474B2, “2,3,4,9-tetrahydro-1H-carbazole derivatives as CRTH2 receptor antagonists” (Actelion Pharmaceutical Ltd., priority 2004, dated 2011)
